Data taken from ChEMBL document CHEMBL1158286, “Molluscicidal Triterpenoid Glycosides of Dialium guineense” (1996).

System: Biomphalaria glabrata
Experiment: Molluscicidal activity against Biomphalaria glabrata assessed as minimum concentration required to cause mortality measured after 24 hrs
Type: functional

## CC1(C)CC[C@]2(C(=O)O)CC[C@]3(C)C(=CC[C@@H]4[C@@]5(C)CC[C@H](O[C@@H]6O[C@H](C(=O)O)[C@@H](O)[C@H](O)[C@H]6O)C(C)(C)[C@@H]5CC[C@]43C)[C@@H]2C1
  Activity: 2 ppm

## C[C@@H]1O[C@@H](O[C@@H]2[C@@H](O)[C@H](O[C@H]3CC[C@]4(C)[C@H]5CC=C6[C@@H]7CC(C)(C)CC[C@]7(C(=O)O)CC[C@@]6(C)[C@]5(C)CC[C@H]4C3(C)C)O[C@H](C(=O)O)[C@H]2O)[C@H](O)[C@H](O)[C@H]1O
  Activity: 4 ppm

## CC1(C)CC[C@]2(C(=O)O)CC[C@]3(C)C(=CC[C@@H]4[C@@]5(C)CC[C@H](O[C@@H]6O[C@H](C(=O)O)[C@@H](O)[C@H](O[C@@H]7OC[C@@H](O)[C@H](O)[C@H]7O)[C@H]6O)C(C)(C)[C@@H]5CC[C@]43C)[C@@H]2C1
  Activity: 4 ppm

## CC1(C)CC[C@]2(C(=O)O)CC[C@]3(C)C(=CC[C@@H]4[C@@]5(C)CC[C@H](O[C@@H]6OC[C@@H](O)[C@H](O)[C@H]6O)C(C)(C)[C@@H]5CC[C@]43C)[C@@H]2C1
  Activity: >16 ppm

## CC1(C)CC[C@]2(C(=O)O)CC[C@]3(C)C(=CC[C@@H]4[C@@]5(C)CC[C@H](O)C(C)(C)[C@@H]5CC[C@]43C)[C@@H]2C1 [OLEANOLIC_ACID]
  Activity: 0 ppm
